Measured values reported in patent EP0238198A2, “Method of modifying the lipid structure function and expression of cell membranes and pharmaceutical compositions for use therein” (Habib, Nagy Adly, priority 1986, dated 1987).
“Also recorded” adds a separate entry of the source.

How the values were obtained:
[1] = system: mammary carcinoma; assay: NMU-induced mammary carcinoma in rats, Example 1; format: in vivo, female Sprague-Dawley rats
Protocol: NMU was administered intravenously to thirty female Sprague-Dawley rats weighing approximately 200g. It has been well established that with this animal model breast cancers will develop in the majority by 12 weeks from the commencement of the giving of the carcinogen (Gullino, P.M., Pettigrew, H.M., and Grantham, E.H., I. National Cancer Inst. 1975, 54, 401-409). The rats were divided into two groups, with those of the first group (twenty rats) receiving NMU alone, and those of the second group (ten rats) receiving NMU plus stearic acid. NMU in 3% acetic acid was dissolved in distilled water (20mg/ml) and was given in three intravenous injections of 5mg/100g body weight at weeks 1, 4 and 8. […] The onset of tumours was monitored by daily inspection and by palpation of the mammary regions twice weekly. At week 22, all surviving animals were sacrificed, and autopsies were performed. The tumours located thereby were dissected and examined histologically. In the control animals who were given carcinogen alone 19 out of the 20 animals had developed breast cancers by week 16 of the experiment, with a mean latent period of 72 days. […] The range of tumour weight/rat was 5g to 47.8g with a mean value of 23.6g per rat (excluding the tumour free animal). […] These five rats had seven tumours in all, with a mean of 1.4 tumours per rat (p less than 0.001 compared to the control group). The range of tumour weight/rat was 4.2g to 21.2g, with an average of 16.4g/rat (p less than 0.01 compared to the control group). […] Of the remaining 8 live rats from this group which were killed at week 22, only three had tumours, the other five being tumour-free.

[2] = system: malignant cells; assay: tumour development in animals implanted with malignant cells; format: in vivo
[3] = system: D261 Rat hepatoma; assay: tumour cell colony inhibition test (clonogenic assay); format: cell-based; details: for Mean no colonies ± SE: 5 days, medium control 33.0±5.1
Protocol: (§1) Cells from rat mammary carcinoma (Sp 22), primary rat fibroblasts (from alveolar tissue) and four rat hepatoma cell lines (D23, D261, D262A and D262B) were studied.
(§2) The method used for rat cells was as follows: 200 cells were plated per dish in 1 ml 'Eagles' methionine enriched medium (MEM) + 10% newborn calf serum (NBCS) in 30 mm culture dishes and incubated for four hours at 37°C. All became firmly adherent during this initial incubation. […] Dilutions containing 20 µg/ml, […], 200 ng/ml and 2 ng/ml were prepared, 1 ml of each dilution was added to four dishes of cells, the final concentration being half the concentration of the material added. […] To control dishes 1 ml of MEM + NBCS was added, or 1 ml of MEM + NBCS + 1% ethanol. The dishes were incubated for 5 days. Medium was then removed, and the cell colonies were rinsed with 0.9% W/V NaCl solution and fixed for 15 minutes with methanol. Cell colonies were stained with 1% aqueous crystal violet and the dishes were allowed to dry.

[4] = system: D262B Rat hepatoma; assay: as above; format: cell-based; details: for Mean no colonies ± SE: 5 days, medium control 37.0± 4.0
Protocol: as §1, §2

[5] = system: Sp22 Rat mammary carcinoma; assay: as above; format: cell-based; details: for Mean no colonies ± SE: 5 days, medium control 61.0±6
Protocol: as §1, §2

[6] = system: D262A Rat hepatoma; assay: as above; format: cell-based; design: inhibition of colony formation: dose or concentration left out as unconfirmed; details: for Mean no colonies ± SE: 5 days, medium control 245.0±11.9
Protocol: as §1, §2

[7] = system: 833K (non-seminomatous testicular germ cell tumour); assay: as above; format: cell-based, human
Protocol: as §1
(§3) The human tumour cell lines were investigated as follows: 500 exponentially-growing RTl12 (transitional cell carcinoma of the bladder) cells or two hundred 833K (non-seminomatous testicuLar.germ cell tumour) cells were plated in 5 cm dishes in RPMI1640 medium supplemented with 5% foetal calf serum and 2 mM 1-glutamine. […] Following a further 14 days incubation colonies were fixed, stained and counted. Colony-forming efficiency of the treated cells was expressed as a proportion of that in the controls. The experiments were repeated three times to permit statistical analysis.

[8] = system: RT112 (transitional cell carcinoma of the bladder); assay: as above; format: cell-based, human
Protocol: as §1, §3

[9] = system: human embryonic lung fibroblasts; assay: cell growth / cytotoxicity in the HSV2 host cell cultures (cell counting); format: cell-based; details: stearic acid 100 micromolar
[10] = system: D262B Rat hepatoma; assay: tumour cell colony inhibition test (clonogenic assay); format: cell-based
[11] = NMU plus stearic acid 10mg s.c. weekly
[12] = Rattus norvegicus, 120 h, read-out: % colony formation relative to medium control
[13] = Homo sapiens, 833K, 336 h, read-out: Colony-forming ability (± standard error)
[14] = summary of Table 3, dose-related response
[15] = Homo sapiens, RT-112, 336 h, read-out: Colony-forming ability (± standard error)

Q: Which “animals that had developed mammary tumours by week 16” value ([1]; NMU plus stearic acid 10mg in liquid paraffin s.c. weekly from second week, ten rats, NMU alone 19 out of 20) does the source give for `CCCCCCCCCCCCCCCCCC(=O)O` [stearic acid, octadecanoic acid] here?
A: The value was “five of the original ten”.

Q: What about the “rats with tumours among the 8 live rats killed at week 22” value [1, 11] of the same molecule?
A: The value was “three”.

Q: And the “tumour-free rats among the 8 live rats killed at week 22” value [1, 11]?
A: The value was “five”.

Q: And the “mean tumours per rat” value ([1]; NMU plus stearic acid 10mg s.c. weekly, NMU alone 2.68, p less than 0.001)?
A: The value was 1.4 tumours per rat.

Q: What about the average tumour weight ([1]; NMU plus stearic acid 10mg s.c. weekly, NMU alone 23.6g per rat, p less than 0.01) of the same molecule?
A: Its average tumour weight is 16.4 g/rat.

Q: What about the mean latent period ([1]; NMU plus stearic acid 10mg s.c. weekly, NMU alone 72 days) of the same molecule?
A: Its mean latent period is 74 days.

Q: And the “rats that had died by week 22” value ([1]; NMU plus stearic acid 10mg s.c. weekly, of ten rats, NMU alone all 19 with tumours died)?
A: The value was 2.

Q: And the development of tumours [2]?
A: The development of tumours was “inhibits the development of tumours”.

Q: What about the activity at 1 µg/mL [3, 12] of the same molecule?
A: The activity at 1 µg/mL was 64.5%.

Q: What about the activity at 10 µg/mL [3, 12] of the same molecule?
A: The activity at 10 µg/mL was 54.5%.

Q: And the activity at 50 µg/mL [3, 12]?
A: Its activity at 50 µg/mL is 18.1%.

Q: What about the “inhibition of colony formation” value ([3]; dose of 10 µg/ml) of the same molecule?
A: The value was “significant inhibition of colony formation”.

Q: And the “Mean no colonies ± SE” value ([3]; stearic acid 1μg/ml)?
A: The value was 21.0±3.0.

Q: And the “Mean no colonies ± SE” value ([3]; stearic acid 10 μg/ml)?
A: The value was 18.0±1.5.

Q: What about the “Mean no colonies ± SE” value ([3]; stearic acid 50 μg/ml) of the same molecule?
A: Its value is 6.0±3.0.

Q: What about the activity at 0.1 µg/mL [4, 12] of the same molecule?
A: The activity at 0.1 µg/mL was 111%.

Q: And the activity at 1 µg/mL [4, 12]?
A: Its activity at 1 µg/mL is 83.8%.

Q: What about the activity at 10 µg/mL [4, 12] of the same molecule?
A: The activity at 10 µg/mL was 67.6%.

Q: What about the activity at 50 µg/mL [4, 12] of the same molecule?
A: The activity at 50 µg/mL was 48.6%.

Q: And the “inhibition of colony formation” value ([4]; dose of 10 µg/ml)?
A: Its value is “significant inhibition of colony formation”.

Q: And the “Mean no colonies ± SE” value ([4]; stearic acid 100 ng/ml)?
A: The value was 41.0± 1.8.

Q: And the “Mean no colonies ± SE” value ([4]; stearic acid 1μg/ml)?
A: Its value is 31.0± 5.8.

Q: And the “Mean no colonies ± SE” value ([4]; stearic acid 10 μg/ml)?
A: Its value is 25.0± 2.8.

Q: And the “Mean no colonies ± SE” value ([4]; stearic acid 50 μg/ml)?
A: The value was 18.0± 4.5.

Q: What about the activity at 0.001 µg/mL [5, 12] of the same molecule?
A: Its activity at 0.001 µg/mL is 83%.

Q: What about the activity at 0.01 µg/mL [5, 12] of the same molecule?
A: Its activity at 0.01 µg/mL is 91%.

Q: And the activity at 0.1 µg/mL [5, 12]?
A: Its activity at 0.1 µg/mL is 86%.

Q: What about the activity at 1 µg/mL [5, 12] of the same molecule?
A: The activity at 1 µg/mL was 93%.

Q: And the activity at 10 µg/mL [5, 12]?
A: Its activity at 10 µg/mL is 96%.

Q: What about the activity at 50 µg/mL [5, 12] of the same molecule?
A: The activity at 50 µg/mL was 84%.

Q: And the “Mean no colonies ± SE” value ([5]; stearic acid 1ng/ml)?
A: The value was 54.0±10.

Q: And the “Mean no colonies ± SE” value ([5]; stearic acid 10 ng/ml)?
A: The value was 55.7±3.

Q: And the “Mean no colonies ± SE” value ([5]; stearic acid 100 ng/ml)?
A: Its value is 52.5±6.

Q: What about the “Mean no colonies ± SE” value ([5]; stearic acid 1µg/ml) of the same molecule?
A: Its value is 56.7±3.

Q: What about the “Mean no colonies ± SE” value ([5]; stearic acid 10 µg/ml) of the same molecule?
A: Its value is 58.7±1.

Q: What about the “Mean no colonies ± SE” value ([5]; stearic acid 50 µg/ml) of the same molecule?
A: The value was 51.2±6.

Q: And the “inhibition of colony development” value ([5]; summary of Table 2)?
A: Its value is “failed to inhibit”.

Q: What about the “inhibition of colony formation” value [6] of the same molecule?
A: Its value is “significant inhibition of colony formation”.

Q: What about the activity at 0.01 µg/mL [6, 12] of the same molecule?
A: The activity at 0.01 µg/mL was 88%.

Q: What about the activity at 0.1 µg/mL [6, 12] of the same molecule?
A: Its activity at 0.1 µg/mL is 101%.

Q: What about the activity at 1 µg/mL [6, 12] of the same molecule?
A: The activity at 1 µg/mL was 83.2%.

Q: What about the activity at 10 µg/mL [6, 12] of the same molecule?
A: Its activity at 10 µg/mL is 74.7%.

Q: What about the activity at 50 µg/mL [6, 12] of the same molecule?
A: Its activity at 50 µg/mL is 32.4%.

Q: What about the “Mean no colonies ± SE” value ([6]; stearic acid 10ng/ml) of the same molecule?
A: The value was 216.0± 8.8.

Q: What about the “Mean no colonies ± SE” value ([6]; stearic acid 100 ng/ml) of the same molecule?
A: Its value is 247.8± 8.3.

Q: And the “Mean no colonies ± SE” value ([6]; stearic acid 1μg/ml)?
A: Its value is 203.8±18.1.

Q: What about the “Mean no colonies ± SE” value ([6]; stearic acid 10 μg/ml) of the same molecule?
A: Its value is 190.3±13.6.

Q: What about the “Mean no colonies ± SE” value ([6]; stearic acid 50 μg/ml) of the same molecule?
A: The value was 79.3± 7.1.

Q: And the activity at 1 µg/mL [7, 13]?
A: The activity at 1 µg/mL was 81.5%.

Q: And the activity at 2 µg/mL [7, 13]?
A: Its activity at 2 µg/mL is 70.4%.

Q: What about the activity at 4 µg/mL [7, 13] of the same molecule?
A: The activity at 4 µg/mL was 27.5%.

Q: And the activity at 6 µg/mL [7, 13]?
A: Its activity at 6 µg/mL is 0.9%.

Q: And the activity at 8 µg/mL [7, 13]?
A: The activity at 8 µg/mL was 0%.

Q: What about the activity at 10 µg/mL [7, 13] of the same molecule?
A: Its activity at 10 µg/mL is 0%.

Q: And the “inhibition of colony formation” value [7, 14]?
A: The value was “inhibited colony formation”.

Q: What about the activity at 1 µg/mL [8, 15] of the same molecule?
A: Its activity at 1 µg/mL is 92%.

Q: And the activity at 2 µg/mL [8, 15]?
A: Its activity at 2 µg/mL is 86%.

Q: And the activity at 4 µg/mL [8, 15]?
A: The activity at 4 µg/mL was 45%.

Q: And the activity at 6 µg/mL [8, 15]?
A: Its activity at 6 µg/mL is 4.6%.

Q: What about the activity at 8 µg/mL [8, 15] of the same molecule?
A: The activity at 8 µg/mL was 0.3%.

Q: And the activity at 10 µg/mL [8, 15]?
A: The activity at 10 µg/mL was 0%.

Q: What about the “inhibition of colony formation” value [8, 14] of the same molecule?
A: The value was “inhibited colony formation”.

Q: And the “inhibition of cell division / cell growth” value [9]?
A: The value was “inhibits cell division; also recorded: (+) = some inhibition of cell growth at this concentration of fatty acid supplementation”.

Q: And the activity at 0.01 µg/mL [10, 12]?
A: The activity at 0.01 µg/mL was 109%.

Q: What about the “Mean no colonies ± SE” value ([10]; stearic acid 10ng/ml, 5 days, medium control 37.0± 4.0) of the same molecule?
A: Its value is 40.3± 1.8.
